Measured values: patent publication US20160168140A1, “HETEROCYCLIC COMPOUNDS AS ANTIBIOTIC POTENTIATORS” (priority 2014, published 2016)

System: Acinetobacter baumannii (Ab23)
Assay: MIC shift assay of antibiotics (broth microdilution)
Format: cell-based
Conditions: fold shift of colistin MIC, nc = no changeover or no shift
Experimental: Minimum inhibitory concentration (MIC) shift assays were performed to determine if the test compounds could alter the MIC of existing antibacterial drugs (e.g., ciprofloxacin and colistin) for E. coli, Acinetobacter baumannii, Klebsiella pneumoniae, Pseudomonas aeruginosa, and Enterobacter cloacae. The MIC shift assay is based on the standard broth microdilution MIC determination protocol of Wiegand et al, Nat Protoc. 3(2):163-75 (2008), with slight modifications that allow for the screening of up to seven test compounds in a single plate.
On the day before an assay, bacteria were grown overnight in cation-adjusted Mueller Hinton broth (CAMHB; Teknova, Hollister, Calif.) at 37° C. in an orbital shaker and sub-cultured at a 1:200 dilution the following morning. The cells were grown to OD600=0.5 to 0.8 and then diluted to OD600=0.01. From a serial dilution of each antibiotic at (50 μL of 2× concentrated stock solutions) several concentrations were added to the wells of a sterile, transparent round-bottom 96-well plate (Phenix Research Products, Candler, N.C.), and diluted cells (50 μL) were added to the plates for a starting OD600 of 0.005. […] A row of wells lacking test compound but containing the antibiotic was used to determine the MIC of that antibiotic alone. A column of wells lacking both antibiotic and test compound served as a growth control, and an additional column containing only CAMHB was included as a sterile blank control.
The plates were incubated for 18 to 20 h at 37° C. in an orbital shaker, and the cell density (OD600) was determined the following day in a microplate reader (PolarStar Optima, BMG Labtech). The MIC shift was determined by comparing the MIC of the antibiotic alone to the MIC of the antibiotic plus test compound.

Compound	colistin MIC shift, Ab23 at (compd concentration) (compound concentration 4 μM)	other results
FC(F)(F)c1ccc2[nH]cc(/C=C/c3ccc(Cl)c(Cl)c3)c2c1 [compound 369]	32x	–
E-1-(5-bromo-3-(3,4-dichlorostyryl)-1H-indol-1-yl)-2-(dimethylamino)ethan-1-one [compound 457]	16x	–
Cc1cccc2c(NCCN(C)C)nc(-c3cc(-c4ccccc4)cc(C(F)(F)F)c3)nc12 [524f]	32x	–
CCN(CC)CCCC(C)Nc1nc(-c2cn(Cc3ccccc3)c3c(Cl)cccc23)nc2c(F)cccc12 (racemic) [compound 564]	4x	–
Cc1cccc2c(NCCCN(C)C)nc(-c3cccc(-c4cc(F)cc(C(F)(F)F)c4)c3)nc12 [compound 344]	–	colistin MIC shift, Ab23 at (compd concentration) (compound concentration 2 μM): 8-16x
CCC(N)C(=O)n1cc(-c2ccc(Cl)c(Cl)c2)c2cc(Cl)ccc21 (stereo not shown) [362f]	64x	–
CN(C)CCCNc1nc(/C=C/c2ccc(F)c(Cl)c2)nc2c(C(F)(F)F)cccc12 [compound 329]	8x	–
CN(C)CCCn1cc(-c2ccc(Cl)c(Cl)c2)c2cc(Cl)ccc21 [compound 359]	16x	–
Cc1cccc2c(NCCCN(C)C)nc(-c3cccc(Br)c3)nc12 [compound 455]	–	colistin MIC shift, Ab23 at (compd concentration) (compound concentration 10 μM): 4x
FC(F)(F)c1cccc(-c2c[nH]c3ccc(Cl)cc23)c1 [compound 430]	–	colistin MIC shift, Ab23 at (compd concentration) (compound concentration 2 μM): 16x
Cc1cccc2c(N(C)CCCN(C)C)nc(-c3cc(Br)cc(C(F)(F)F)c3)nc12 [compound 502]	32x	–
CCN(CC)CCCC(C)Nc1nc(-c2cn(Cc3ccc(Cl)cc3)c3c(Cl)cccc23)nc2c(C)cccc12 (racemic) [compound 576]	8x	–
Cc1cccc2c(NCCCN(C)C)nc(-c3cc(-c4cccnc4)cc(C(F)(F)F)c3)nc12 [compound 510]	16x	–
Cc1cccc2c(NCCCN(C)C)nc(-c3cc(-c4ccccc4F)cc(C(F)(F)F)c3)nc12 [compound 341]	–	colistin MIC shift, Ab23 at (compd concentration) (compound concentration 2 μM): 8-16x
Cc1cccc2c(NCCCN(C)C)nc(-c3cc(N4CCOCC4)cc(C(F)(F)F)c3)nc12 [compound 501]	–	colistin MIC shift, Ab23 at (compd concentration) (compound concentration 10 μM): 8x
CCN(CC)CCCC(C)Nc1nc(-c2cn(Cc3ccccc3)c3c(Cl)cccc23)nc2c(Cl)cccc12 (racemic) [compound 566]	8x	–
Cc1cccc2c(NCCCN(C)C)nc(-c3cc(-c4ccccn4)cc(C(F)(F)F)c3)nc12 [524b]	16x	–
FC(F)(F)c1cc(Cl)cc(-c2c[nH]c3cc(Cl)c(Cl)cc23)c1 [compound 434]	32x	–
Clc1ccc(-c2c[nH]c3cc(Cl)c(Cl)cc23)cc1Cl [compound 432]	–	colistin MIC shift, Ab23 at (compd concentration) (compound concentration 2 μM): 8x

Compound	colistin MIC shift, Ab23 at (compd concentration) (compound concentration 4 μM)	other results
FC(F)(F)c1cc(-c2c[nH]c3cc(Cl)c(Cl)cc23)cc(C(F)(F)F)c1 [compound 435]	–	colistin MIC shift, Ab23 at (compd concentration) (compound concentration 10 μM): 16x
CCN(CC)CCCC(C)Nc1nc(-c2cn(Cc3cccc(C)c3)c3c(Cl)cccc23)nc2c(C)cccc12 (racemic) [compound 574]	–	colistin MIC shift, Ab23 at (compd concentration) (compound concentration 10 μM): 8x
Clc1ccc2[nH]cc(/C=C/c3ccc(Cl)c(Cl)c3)c2c1 [compound 365]	16-64x (4 μM);	colistin MIC shift, Ab23 at (compd concentration) (compound concentration 2 μM): ≧16x (2 μM)
CN(C)CCCNc1nc(-c2cccc(-c3cccc(Cl)c3Cl)c2)nc2c(Cl)cccc12 [compound 490]	16x	–
Cc1cccc2c(NCCCN(C)C)nc(-c3cccc(-c4ccc(C(F)(F)F)c(F)c4)c3)nc12 [compound 355]	–	colistin MIC shift, Ab23 at (compd concentration) (compound concentration 2 μM): 8-16x
CCN(CC)CCCC(C)Nc1nc(-c2ccc3cc(Cl)c(Cl)cc3c2)nc2c(C)cccc12 (stereo not shown) [compound 443]	16x	–
FC(F)(F)c1ccc2c(/C=C/c3ccc(Cl)c(Cl)c3)c[nH]c2c1 [compound 364]	32-64x	–
Clc1ccc(CCc2c[nH]c3ccc(Br)cc23)cc1Cl [compound 411]	8x	–
CCN(CC)CCCC(C)Nc1nc(-c2cccc(-c3ccc(C(F)(F)F)c(F)c3)c2)nc2c(C)cccc12 (stereo not shown) [compound 476]	16x	–
Cc1c(-c2ccccc2)ccc2c(NCCCN(C)C)nc(-c3cc(-c4ccccc4)cc(C(F)(F)F)c3)nc12 [524e]	4x	–
Fc1ccc2[nH]cc(/C=C/c3ccc(Cl)c(Cl)c3)c2c1 [compound 368]	16-32x	–
CCN(CC)CCCC(C)Nc1nc(/C=C/c2ccc(Cl)c(Cl)c2)nc2c(C(F)(F)F)cccc12 (racemic) [compound 312]	16x	–
CN(C)CCCNc1nc(-c2cn(Cc3ccccc3)c3c(Cl)cccc23)nc2ccccc12 [compound 563]	–	colistin MIC shift, Ab23 at (compd concentration) (compound concentration 10 μM): 8x
Cc1cccc2c(NCCCN(C)C)nc(-c3cc(-c4ccccc4C(F)(F)F)cc(C(F)(F)F)c3)nc12 [compound 509]	64x	–
CCN(CC)CCCC(C)Nc1nc(-c2cc(-c3cccc(C(F)(F)F)c3)cc(C(F)(F)F)c2)nc2c(C)cccc12 (stereo not shown) [compound 493]	16x	–
COc1ccc2c(NCCCN(C)C)nc(/C=C/c3ccc(Cl)c(Cl)c3)nc2c1C [compound 467, (E)-N^1-(2-(3,4-dichlorostyryl)-7-methoxy-8-methylquinazolin-4-yl)-N^3,N^3-dimethylpropane-1,3-diamine]	16x	–
CCN(CC)CCCC(C)Nc1nc(/C=C/c2ccc(Cl)c(Cl)c2)nc2c([N+](=O)[O-])cccc12 (racemic) [compound 314]	8x	–
Cc1cccc2c(NCCCN(C)C)nc(-c3cccc(-c4cccc(C(F)(F)F)c4)c3)nc12 [compound 466]	8-16x	–
CN(C)CCCNc1nc(/C=C/c2cc(C(F)(F)F)c(C(F)(F)F)cc2C(F)(F)F)nc2c(C(F)(F)F)cccc12 [compound 331]	16x	–

Compound	colistin MIC shift, Ab23 at (compd concentration) (compound concentration 4 μM)	other results
CN1CCN(CC(=O)n2cc(-c3ccc(Cl)c(Cl)c3)c3cc(Cl)ccc32)CC1 [362g]	16x	–
O=C(O)Cn1cc(/C=C/c2ccc(Cl)c(Cl)c2)c2ccc(F)cc21 [compound 416]	–	colistin MIC shift, Ab23 at (compd concentration) (compound concentration 10 μM): 4x
Cc1cccc2c(NCCCN(C)C)nc(-c3cn(Cc4cccc(Cl)c4)c4c(Cl)cccc34)nc12 [compound 579]	16x	–
Cc1c(Br)ccc2c(NCCCN(C)C)nc(-c3cc(Br)cc(C(F)(F)F)c3)nc12 [compound 512]	64x	–
Cc1cccc2c(NCCCN(C)C)nc(-c3cccc(-c4cc(Cl)cc(Cl)c4)c3)nc12 [compound 470]	2x	–
Cc1cccc2c(NCCCN)nc(-c3cc(-c4ccccc4)cc(C(F)(F)F)c3)nc12 [524i]	128x	–
CCN(CC)CCCC(C)Nc1nc(/C=C/c2ccc(Cl)c(Cl)c2)nc2cc(C(F)(F)F)ccc12 (racemic) [compound 315]	4-8x	–
Clc1ccc2c(-c3cccc(-c4ccccc4)c3)n[nH]c2c1 [compound 526]	1x	–
CN(C)CCCNc1nc(/C=C/c2ccc(F)c(C(F)(F)F)c2)nc2c(C(F)(F)F)cccc12 [compound 332]	16x	–
CN(C)CC(=O)n1cc(-c2ccc(Cl)c(Cl)c2)c2cc(Cl)ccc21 [compound 362]	–	colistin MIC shift, Ab23 at (compd concentration) (compound concentration 2 μM): 16x
CCN(CC)CCCC(C)Nc1nc(/C=C/c2ccc(Cl)cc2)nc2cc(Cl)ccc12 (racemic) [compound 310]	–	colistin MIC shift, Ab23 at (compd concentration) (compound concentration 10 μM): 8x
CC(C)(c1c[nH]c2cc(Cl)c(Cl)cc12)c1c[nH]c2cc(Cl)c(Cl)cc12 [compound 440]	–	colistin MIC shift, Ab23 at (compd concentration) (compound concentration 2 μM): ≧16x
3,3′-(propane-2,2-diyl)bis(5,6-dichloro-1H-indole) [compound 461]	64x	–
Cc1cccc2c(NCCCN(C)C)nc(-c3cccc(-c4cccc(Cl)c4Cl)c3)nc12 [compound 484]	16x	–
Cc1cccc2c(NCCCN)nc(-c3cccc(-c4cc(C(F)(F)F)ccc4F)c3)nc12 [491a]	128x	–
FC(F)(F)c1ccc2c(-c3ccc4ccccc4c3)n[nH]c2c1 [compound 540]	–	colistin MIC shift, Ab23 at (compd concentration) (compound concentration 2 μM): 4x
CCN(CC)CCCC(C)Nc1nc(-c2cc(Cc3ccccc3)c3ccccc3c2)nc2c(C)cccc12 (stereo not shown) [compound 447]	4x	–
Fc1ccc2c(/C=C/c3cc(Br)cc(Br)c3)c[nH]c2c1 [compound 389]	16x	–
Cc1c(-c2ccccc2)ccc2c(NCCCN(C)C)nc(-c3cc(Br)cc(C(F)(F)F)c3)nc12 [524d]	16-32x	–
